From EP0745595A1, “3-(3-Aryloxyphenyl)-1-(substituted methyl)-s-triazine-2,4,6-oxo or thiotrione herbicidal agents” (American Cyanamid Company, priority 1995, dated 1996)

Tests used:
Type in all cases: in vivo
[1] = tested on: ABUTILON THEOPHRASTI, MEDIC.; assay: Postemergence herbicidal evaluation, ABUTH (Velvetleaf)
Procedure, shortened: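 This postemergence herbicide test used two-week-old velvetleaf seedlings grown in jiffy flats. Each compound was sprayed at 40 psi as a dispersion in 50/50 acetone/water with 0.5% TWEEN®20 surfactant. Plants then received routine greenhouse care. After four to five weeks, injury was scored visually on a 0-9 scale against a control, and replicate tests were averaged.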

[2] = tested on: ECHINOCHLOA CRUS-GALLI, (L) BEAU; assay: Postemergence herbicidal evaluation, ECHCG (Barnyardgrass); set-up: key to ECHCG rating / Herbicidal effect rating, ECHCG / ECHCG: 0-9 visual rating scale vs untreated control
Procedure, shortened: (§1)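 Application to seedlings around two weeks old: test compound in 50/50 acetone/water, 0.5% TWEEN 20, sprayed at 40 psi for roughly 0.125–0.500 kg/ha. Evaluation: 0–9 visual scale after 4–5 weeks, replicates averaged.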

[3] = tested on: TRITICUM AESTIVUM, CV. APOLLO; assay: Postemergence herbicidal evaluation, TRZAWO (Wheat, Winter, CV. APOLLO)
Procedure, shortened: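 This greenhouse postemergence test applied compounds to roughly two-week-old wheat seedlings grown in jiffy flats. The spray solution was 50/50 acetone/water with 0.5% TWEEN®20, a polyoxyethylene sorbitan monolaurate, sprayed from a nozzle run at 40 psi. After four to five weeks of standard greenhouse care, injury was scored from 0 to 9 by comparing stand, vigor, malformation, size, chlorosis and overall appearance with a control. Multiple tests were averaged.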

[4] = tested on: AMBROSIA ARTEMISIIFOLIA, L.; assay: Postemergence herbicidal evaluation, AMBEL (Ragweed, Common)
Procedure, shortened: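 Postemergence herbicidal activity on AMBEL (common ragweed) was assessed on two-week-old seedlings grown in jiffy flats. Treatment solutions of 50/50 acetone/water with 0.5% TWEEN®20 surfactant were sprayed at 40 psi. After four to five weeks in the greenhouse, plants were scored 0-9 against a control for stand, vigor, malformation, size, chlorosis and overall appearance, with multiple tests averaged.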

[5] = tested on: CHENOPODIUM ALBUM, L.; assay: Postemergence herbicidal evaluation, CHEAL (Lambsquarters, Common)
Procedure, shortened: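 Postemergence herbicidal activity on Chenopodium album was tested by spraying two-week-old seedlings grown in jiffy flats with compound in acetone/water (50/50) plus 0.5% TWEEN®20, using a 40 psi nozzle. Four to five weeks after treatment, stand, vigor, malformation, size, chlorosis and overall appearance were scored 0-9 relative to controls, with repeat tests averaged.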

[6] = tested on: ZEA MAYS L.; assay: Postemergence herbicidal evaluation, ZEAMX (Corn, Field)
Procedure, shortened: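 This greenhouse postemergence test treated corn plants about two weeks old. Compounds in a 50/50 acetone/water mixture with 0.5% TWEEN®20 were applied through a spray nozzle at 40 psi. After four to five weeks, injury was scored 0-9 against an untreated control, judging stand, vigor, malformation, size, chlorosis and overall appearance. Repeated tests were averaged.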

[7] = tested on: CASSIA OBTUSIFOLIA, L.; assay: Postemergence herbicidal evaluation, CASOB (Sicklepod); set-up: key to CASOB rating / Herbicidal effect rating, CASOB / CASOB: 0-9 visual rating scale vs untreated control
Procedure, shortened: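 Postemergence foliar spray at approximately 0.125–0.500 kg/ha onto two-week seedlings; greenhouse hold, then 0–9 visual injury rating after 4–5 weeks.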

[8] = tested on: ORYZA SATIVA, L. TEBONNET; assay: Rice tolerance to post-transplant applications under flooded paddy conditions, ORYSAT (Rice, Tebonnet); settings: for ORYSAT: post-transplanted rice
Procedure, shortened: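 Greenhouse pots of silt loam, each with two transplanted ten-day-old seedlings, are held under 1.5 to 3 cm of standing water. Three days later the compound is applied to the flooded surface at about 0.5, 0.25, 0.125 or 0.063 kg/ha. Damage is scored visually 0-9 after 3-4 weeks.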

[9] = tested on: IPOMOEA SPP.; assay: Postemergence herbicidal evaluation, IPOSS (Morningglory spp.)
Procedure, shortened: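 In this greenhouse postemergence herbicide test on Ipomoea spp. (morningglory), compounds in 50/50 acetone/water with 0.5% TWEEN®20 were sprayed at 40 psi onto seedlings about two weeks old grown in jiffy flats. After four to five weeks, injury was scored on a 0-9 scale covering stand, vigor, malformation, size, chlorosis and overall appearance versus control, with repeat tests averaged.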

[10] = tested on: SETARIA VIRIDIS, (L) BEAU; assay: Postemergence herbicidal evaluation, SETVI (Foxtail, Green); set-up: key to SETVI rating / Herbicidal effect rating, SETVI / SETVI: 0-9 visual rating scale vs untreated control
Procedure, shortened: as §1

[11] = tested on: CHENOPODIUM ALBUM, L.; assay: Preemergence herbicidal evaluation, CHEAL (Lambsquarters, Common)
Procedure, shortened: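 Injury scored visually (0–9; stand, vigor, malformation, size, chlorosis) versus untreated control, four to five weeks post-treatment. Application: aqueous acetone spray onto freshly planted soil cups, equivalent to about 0.125 to 0.50 kg/ha, plants then kept under standard greenhouse care.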

Cn1c(=O)[nH]c(=O)n(-c2cc(Oc3ccc(C(F)(F)F)cc3Cl)ccc2Cl)c1=O [F, reference compound]
ABUTH ([1]; Rate 0.016 kg/ha): 4.0
ABUTH ([1]; Rate 0.032 kg/ha): 4.0
ABUTH ([1]; Rate 0.063 kg/ha): 5.0
ABUTH ([1]; Rate 0.125 kg/ha): 5.0
ABUTH ([1]; Rate 0.250 kg/ha): 7.0
ABUTH ([1]; Rate 0.500 kg/ha): 9.0
ECHCG ([2]; Rate 0.016 kg/ha): 0.0
ECHCG ([2]; Rate 0.032 kg/ha): 0.0
ECHCG ([2]; Rate 0.063 kg/ha): 0.0
ECHCG ([2]; Rate 0.125 kg/ha): 1.0
ECHCG ([2]; Rate 0.250 kg/ha): 2.0
ECHCG ([2]; Rate 0.500 kg/ha): 2.0
TRZAWO ([3]; Rate 0.016 kg/ha): 1.5
TRZAWO ([3]; Rate 0.032 kg/ha): 1.5
TRZAWO ([3]; Rate 0.063 kg/ha): 2.5
TRZAWO ([3]; Rate 0.125 kg/ha): 3.0
TRZAWO ([3]; Rate 0.250 kg/ha): 3.5
TRZAWO ([3]; Rate 0.500 kg/ha): 3.5
AMBEL ([4]; Rate 0.016 kg/ha): 2.0
AMBEL ([4]; Rate 0.032 kg/ha): 3.0
AMBEL ([4]; Rate 0.063 kg/ha): 6.0
AMBEL ([4]; Rate 0.125 kg/ha): 6.0
AMBEL ([4]; Rate 0.250 kg/ha): 6.0
AMBEL ([4]; Rate 0.500 kg/ha): 7.0
CHEAL ([5]; Rate 0.016 kg/ha): 4.0
CHEAL ([5]; Rate 0.032 kg/ha): 5.0
CHEAL ([5]; Rate 0.063 kg/ha): 6.0
CHEAL ([5]; Rate 0.125 kg/ha): 8.0
CHEAL ([5]; Rate 0.250 kg/ha): 9.0
CHEAL ([5]; Rate 0.500 kg/ha): 9.0
ZEAMX ([6]; Rate 0.016 kg/ha): 1.5
ZEAMX ([6]; Rate 0.032 kg/ha): 2.0
ZEAMX ([6]; Rate 0.063 kg/ha): 2.5
ZEAMX ([6]; Rate 0.125 kg/ha): 3.0
ZEAMX ([6]; Rate 0.250 kg/ha): 4.0
ZEAMX ([6]; Rate 0.500 kg/ha): 4.0
CASOB ([7]; Rate 0.016 kg/ha): 2.0
CASOB ([7]; Rate 0.032 kg/ha): 4.0
CASOB ([7]; Rate 0.063 kg/ha): 5.0
CASOB ([7]; Rate 0.125 kg/ha): 8.0
CASOB ([7]; Rate 0.250 kg/ha): 9.0
CASOB ([7]; Rate 0.500 kg/ha): 6.5
ORYSAT ([8]; Rate 0.031 kg/ha): 0.0
ORYSAT ([8]; Rate 0.063 kg/ha): 0.0
ORYSAT ([8]; Rate 0.125 kg/ha): 1.0
ORYSAT ([8]; Rate 0.250 kg/ha): 2.0
IPOSS ([9]; Rate 0.016 kg/ha): 3.0
IPOSS ([9]; Rate 0.032 kg/ha): 4.0
IPOSS ([9]; Rate 0.063 kg/ha): 6.0
IPOSS ([9]; Rate 0.125 kg/ha): 5.0
IPOSS ([9]; Rate 0.250 kg/ha): 6.0
IPOSS ([9]; Rate 0.500 kg/ha): 7.0
SETVI ([10]; Rate 0.016 kg/ha): 0.0
SETVI ([10]; Rate 0.032 kg/ha): 1.0
SETVI ([10]; Rate 0.063 kg/ha): 3.0
SETVI ([10]; Rate 0.125 kg/ha): 2.0
SETVI ([10]; Rate 0.250 kg/ha): 3.0
SETVI ([10]; Rate 0.500 kg/ha): 3.0
CHEAL ([11]; Rate 0.063 kg/ha): 9.0
CHEAL ([11]; Rate 0.125 kg/ha): 9.0
CHEAL ([11]; Rate 0.250 kg/ha): 9.0
CHEAL ([11]; Rate 0.500 kg/ha): 9.0

COC(=O)Cn1c(=O)n(C)c(=O)n(-c2cc(Oc3ccccn3)ccc2[N+](=O)[O-])c1=O [Compound 38, Methyl tetrahydro-3-methyl-5-[2-nitro-5-(2-pyridyloxy)phenyl]-2,4,6-trioxo-s-triazine-1(2H)-acetate]
ABUTH rating ([1]; Rate 0.500 kg/ha): 0.0
ECHCG rating ([2]; Rate 0.500 kg/ha): 0.0
TRZAWO rating ([3]; Rate 0.500 kg/ha): 0.0
AMBEL rating ([4]; Rate 0.500 kg/ha): 0.0
CHEAL rating ([5]; Rate 0.500 kg/ha): 0.0
ZEAMX rating ([6]; Rate 0.500 kg/ha): 0.0
CASOB rating ([7]; Rate 0.500 kg/ha): 0.0
Herbicidal effect rating, ORYSAT ([8]; 0.500 kg/ha, post-transplant rice, 3-4 weeks after treatment): 0.0
IPOSS rating ([9]; Rate 0.500 kg/ha): 0.0
SETVI rating ([10]; Rate 0.500 kg/ha): 0.0
CHEAL herbicidal rating ([11]; Rate 0.500 kg/ha, rated four to five weeks after treatment): 0.0
